Experimental data from patent publication US10016409B2, “Method for improving interstitial flow” (priority 2012, dated 2018).
Structures can show the parent of a compound that is named as a salt.

Experiments:
MCI patients [1] = conditions: cited from earlier work; for conversion from MCI to Alzheimer: Non-patent Document 3; for effectiveness on MCI patients: clinical trials, Guidelines for Management of Dementia
MCI patients [2] = test: Clinical record analysis, MMSE change in MCI patients (MMSE 22 to 26) under donepezil hydrochloride oral administration; type: in vivo, human; conditions: MCI patients MMSE 22-26
Text: Patients subjected to oral administration of donepezil hydrochloride, having an observation period of one or more years before the MMSE test date, and having first MMSE scores less than or equal to 26 were picked up from a clinical record. Among the patients, patients recorded to have been consecutively administered with cilostazol for 6 months or more in the observation period were classified as a donepezil hydrochloride and cilostazol combined use group (69 cases), and patients recorded to have experienced no cilostazol oral administration were classified as a donepezil hydrochloride single use group (87 cases). Cilostazol was oral-administered at a dosage of 50 to 200 mg/day in the morning and evening, and donepezil hydrochloride was administered at a dosage of 5 mg/day once in a day. Among the patients, patients with MMSE scores greater than or equal to 22 and less than or equal to 26 were extracted as an MCI patient group. Then, 36 cases (16 males and 20 females, average age: 78.4 years old) of the donepezil hydrochloride single use group (hereinafter referred to as a single use group) and 34 cases (15 males and 19 females, average age: 77.2 years old) of the donepezil hydrochloride and cilostazol combined use group (hereinafter referred to as combined use group) were found. The average dosage of cilostazol in the combined use group was 121 mg/day. […] Measurement of MMSE was conducted at least twice in the observation period, and the first and last test results were selected for analysis.

dementia patients = test: Clinical record analysis, MMSE change in dementia patients (MMSE less than or equal to 21) under donepezil hydrochloride oral administration; type: in vivo, human; conditions: dementia patients MMSE less than or equal to 21
Text: Patients subjected to oral administration of donepezil hydrochloride, having an observation period of one or more years before the MMSE test date, and having first MMSE scores less than or equal to 26 were picked up from a clinical record. Among the patients, patients recorded to have been consecutively administered with cilostazol for 6 months or more in the observation period were classified as a donepezil hydrochloride and cilostazol combined use group (69 cases), and patients recorded to have experienced no cilostazol oral administration were classified as a donepezil hydrochloride single use group (87 cases). Cilostazol was oral-administered at a dosage of 50 to 200 mg/day in the morning and evening, and donepezil hydrochloride was administered at a dosage of 5 mg/day once in a day.
As a dementia patient group oral-administered with donepezil hydrochloride, patients with MMSE scores less than or equal to 21 were extracted. Then, the donepezil hydrochloride single use group (the single use group) was 51 cases (17 males and 34 females, average age: 78.2 years old) and the donepezil hydrochloride and cilostazol combined use group (the combined use group) was 35 cases (14 males and 21 females, average age: 79.3 years old). The average dosage of cilostazol in the combined use group was 139 mg/day.

CS(=O)(=O)c1ccc(C2=C(c3ccccc3)C(=O)OC2)cc1 [rofecoxib]
prophylactic effects (dementia or MCI) (MCI patients [1]; guideline p. 116, Other Drugs (2)): no prophylactic effects

vitamin E
conversion from MCI to Alzheimer (MCI patients [1]): do not affect conversion from MCI to Alzheimer
dementia prophylactic effect / prophylactic effect against conversion to Alzheimer (MCI patients [1]; RCT directed to MCI patients): neither dementia prophylactic effect nor prophylactic effect against conversion to Alzheimer was obtained

CCN(C)C(=O)Oc1cccc([C@H](C)N(C)C)c1 [rivastigmine]
effectiveness on MCI patients (MCI patients [1]): very limited or is not present

COc1cc2c(cc1OC)C(=O)C(CC1CCN(Cc3ccccc3)CC1)C2 (stereo not drawn) [donepezil hydrochloride]
conversion from MCI to Alzheimer (MCI patients [1]): do not affect conversion from MCI to Alzheimer
effectiveness on MCI patients (MCI patients [1]): very limited or is not present
MMSE change rate (MCI patients [2]; increment or decrement of MMSE score/observation period [year], average±standard error, p=0.022 between groups): −2.23±0.69
change rate of MMSE item 1 of orientation to time (MCI patients [2]; per observation period [year], p=0.003): −0.85
change rate of MMSE item 2 of orientation to location (MCI patients [2]; per observation period [year], p=0.017): −0.31
change rate of MMSE item 5 of delayed recall (MCI patients [2]; per observation period [year], p=0.045): −0.28
change rate of MMSE item 5 of delayed recall (dementia patients; p=0.37): −0.15
change rate of MMSE item 2 of orientation to location (dementia patients; p=0.86): −0.13
change rate of MMSE item 1 of orientation to time (dementia patients; p=0.89): −0.16
MMSE change rate (dementia patients; per observation period, average±standard error, p=0.72 between groups): −0.90±037

estrogen
risk of onset of dementia or MCI (MCI patients [1]; RCT, postmenopausal women of 65 years of age or more without dementia): increased the risk of onset of dementia or MCI significantly
